What was measured:
[1] = Odor threshold value (OTV) in air
Text: The odor threshold is the threshold at which a fragrance or odorant is olfactorily perceived by an organism. The odor threshold value, OTV for short, is that minimum concentration of a particular gaseous, sensorily active substance in the surrounding medium that this lifeform is just able to perceive through its sense of smell. In the present invention, preference is given to fragrances having a (very) low odor threshold value. The lower this is, the lower the concentration at which the fragrance is then perceived.

[2] = log Kow (octanol/water partition coefficient); assay type: physicochemical; details: 1-octanol/water
Text: In a further preferred embodiment, the individual fragrances of the fragrance mixture of the invention have a log Kow value of 1 to 10, preferably of 1.5 to 8, more preferably of 2 to 5.5.
The log Kow (octanol/water partition coefficient) is a measure of the lipophilicity of a substance. In terms of calculation, it is the partition coefficient Kow of a substance in a mixture of 1-octanol and water. Kow is greater than one when a substance has better solubility in fat-like solvents such as n-octanol, and less than one when it has better solubility in water. Correspondingly, log Kow is positive for lipophilic substances and negative for hydrophilic substances.

SMILES	log Kow [2]	OTV [1]
CCOC(=O)[C@H]1O[C@@]1(C)c1ccccc1 [Example 2, Aldehyde C16]	3	0.2 ppm
CC(C)=CCCC1=CC[C@](C)(C=O)CC1 [Example 6, Pre-cyclemone B]	5.19	0.5 ppm
C=CCOC(=O)COCCC(C)C [Example 7, Allyl amyl glycolate]	–	0.1 ppm
COc1nccnc1CC(C)C [Example 9, 2-Isobutyl-3-methoxypyrazine]	2.86	0.1 ppm

Now from value to compound, other results behind:

log Kow [2]	SMILES	OTV [1]
3.58	CC(C)=C[C@H]1C[C@@H](C)CCO1 [Example 1, Rose oxide]	0.5 ppm
3.55	CC(C)=CCC[C@@H](C)CC#N [Example 3, citronellylnitrile]	1 ppm
3.55	CCCCC/C=C\CCC=O [Example 10, cis-4-Decenal]	0.2 ppm

From patent US20170247645A1, “ENCAPSULATED FRAGRANCE MIXTURES” (Symrise AG, priority 2014, published 2017)
